The target in assay [1] is T1, MST1-GFP (Homo sapiens, UniProt Q13043).
T1 construct: gene STK4; GFP-tagged MST1 expressed from plasmid in A549 cells, RIPA lysate
T1 sequence (Q13043 1-487): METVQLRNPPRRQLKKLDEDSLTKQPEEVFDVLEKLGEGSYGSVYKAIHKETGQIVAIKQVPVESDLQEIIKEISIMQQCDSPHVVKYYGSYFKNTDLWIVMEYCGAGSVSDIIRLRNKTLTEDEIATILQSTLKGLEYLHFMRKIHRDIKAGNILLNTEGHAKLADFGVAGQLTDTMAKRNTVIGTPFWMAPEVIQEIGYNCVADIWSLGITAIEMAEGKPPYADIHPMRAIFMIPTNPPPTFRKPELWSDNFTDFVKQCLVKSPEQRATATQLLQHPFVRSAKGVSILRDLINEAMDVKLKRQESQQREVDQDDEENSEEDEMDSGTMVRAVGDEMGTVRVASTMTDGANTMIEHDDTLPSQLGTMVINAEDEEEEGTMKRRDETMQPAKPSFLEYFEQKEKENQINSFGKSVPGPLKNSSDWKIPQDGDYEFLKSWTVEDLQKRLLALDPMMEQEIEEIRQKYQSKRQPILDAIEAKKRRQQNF
The assay is described as follows: microscale thermophoresis. The conditions noted are these: A549 cell lysate; GFP fusion as fluorophore; constant, if any, only in figure. The source says: microscale thermophoresis on MST1-GFP | Microscale thermophoresis confirmed dose‐dependent binding affinity (Figure 1H)

Assay [2] addresses T2, MST1 (Homo sapiens, UniProt Q13043).
T2 sequence (Q13043 1-487): T1 sequence (Q13043 1-487)
The assay is described as follows: isothermal titration calorimetry. The assay is classed as binding. Also noted: gene STK4; isolated MST1 protein (ITC) and "active MST1" (ADP-Glo). The conditions noted are these: 25 °C; 50 mM HEPES pH 7.5, 150 mM NaCl, 2 mM DTT.

Assay [3] addresses T2, MST1. In words: CETSA (immunoblot), H520 and A549 cells. It counts as cell-based. The conditions noted are these: 42-56 °C, 3 min; supported by DARTS (50 and 100 µM, Pronase). Also noted: gene STK4; endogenous protein in A549 and H520 cells, detected by immunoblot (antibody CST #3682). (In general: In western blotting, separated proteins are transferred to a membrane and probed.)

Assay [4] has as its target T2, MST1. The assay is described as follows: ADP-Glo kinase assay. It counts as biochemical. Set-up: gene STK4; isolated MST1 protein (ITC) and "active MST1" (ADP-Glo). To be noted: activator; ATP and MOB1a substrate; 25 °C, 30 min.

In general, Kd refers to the concentration at which binding is half-saturated. Take `C=C(C)C(=O)OC1CC(C)=CC2(OC)C=C(C)C(O2)C2OC(=O)C(=C)C12` (stereo not shown) [EM2]: the Kd in assay [1] amounted to 1790 ± 1690 nM; in assay [2], 1970 ± 1020 nM. Moreover, in assay [3], the “CETSA (immunoblot), H520 and A549 cells” value was “CETSA demonstrated that EM2 enhanced MST1 thermal stability”. Moreover, the kinase activity result in assay [4] is “functions through its kinase activity, which significantly increased with EM2 concentration (Figure 1J)”.

Values taken from publication PMC12767113, “EM2, a Natural Product MST1/2 Kinase Activator, Suppresses Non‐Small Cell Lung Cancer via Hippo Pathway Activation” (Advanced Science, 2025).
